Measurements published in US20170122958A1, “Enzymes Functional Probes” (University of Dundee, priority 2013, published 2017).

Columns and labels:
Assay in all cases: DSF thermal shift
Assay type in all cases: binding
Brd2(2) = target: T1, Brd2(2) (Homo sapiens, UniProt P25440); conditions: wild type
T1 construct: Plasmids of the eight single BET bromodomain constructs Brd2(1), Brd2(2), Brd3(1), Brd3(2); His6 (N); made in house; host or cells: E. coli BL21(DE3)
Protocol: (§1) DSF assays were performed on a LightCycler®480 from Roche or a Mx3005P Real Time PCR machine from Stratagene. […] SYPRO®Orange from Invitrogen Molecular Probes® was used as a reporter dye to monitor the denaturing process of the proteins. Samples were assayed on a 96-well plate with final protein concentrations of 2 μM for the LightCycler®480 and 6 μM for Mx3005P. Compounds were added at a final concentration of 10 μM for the LightCycler®480 and 30 μM for Mx3005P, while the tetra acetylated histone peptide was added to a final concentration of 100 μM and 300 μM respectively. […] The temperature was raised with a step of 0.6° C. per minute from 37° C. to 95° C. with the LightCycler®480 collecting 39 measurements per ° C., and 1° C. per minute from 25° C. to 95° C. with Mx3005P, collecting fluorescence readings at the end of each interval. Each sample was run in triplicates.
(§2) Collected data was analysed by IGOR Pro 6, a scientific software tool from Wave Metrics, Inc. Analysis was done following the recommendations of Niesen et al.. Fluorescence intensity was plotted as a function of temperature, generating a sigmoidal curve described by a two-state transition from folded to unfolded protein. Curves were fitted by the following sigmoidal equation: […]
(§3) A1 and A2 are the values of minimum and maximum intensities, respectively, x0 is the inflection point and dx is the rate. Fitted curves were differentiated in IGOR Pro 6 and the maximum of the first derivative was identified using the same program. These values correspond to the inflection points of the transition curves and thus to the melting temperatures of the proteins (Tm).

Brd2(1)*(Trp097His) = target: T2, Brd2(1)*(Trp097His) (Homo sapiens, UniProt P25440, W97H); conditions: mutant
T2 construct: Plasmids of the eight single BET bromodomain constructs Brd2(1), Brd2(2), Brd3(1), Brd3(2); His6 (N); made in house; host or cells: E. coli BL21(DE3)
Protocol: as §1, §2, §3

Brd2(2)*(Trp370Phe) = target: T3, Brd2(2)*(Trp370Phe) (Homo sapiens, UniProt P25440, W370F); conditions: mutant
T3 construct: Plasmids of the eight single BET bromodomain constructs Brd2(1), Brd2(2), Brd3(1), Brd3(2); His6 (N); made in house; host or cells: E. coli BL21(DE3)
Protocol: as §1, §2, §3

Brd2(1) = target: T4, Brd2(1) (Homo sapiens, UniProt P25440); conditions: wild type
T4 construct: Plasmids of the eight single BET bromodomain constructs Brd2(1), Brd2(2), Brd3(1), Brd3(2); His6 (N); made in house; host or cells: E. coli BL21(DE3)
Protocol: as §1, §2, §3

Brd2(1)*(Trp097Phe) = target: T5, Brd2(1)*(Trp097Phe) (Homo sapiens, UniProt P25440, W97F); conditions: mutant
T5 construct: Plasmids of the eight single BET bromodomain constructs Brd2(1), Brd2(2), Brd3(1), Brd3(2); His6 (N); made in house; host or cells: E. coli BL21(DE3)
Protocol: as §1, §2, §3

Brd2(2)*(Trp370His) = target: T6, Brd2(2)*(Trp370His) (Homo sapiens, UniProt P25440, W370H); conditions: mutant
T6 construct: Plasmids of the eight single BET bromodomain constructs Brd2(1), Brd2(2), Brd3(1), Brd3(2); His6 (N); made in house; host or cells: E. coli BL21(DE3)
Protocol: as §1, §2, §3

T3 sequence (P25440 344-453 W370F limits assumed): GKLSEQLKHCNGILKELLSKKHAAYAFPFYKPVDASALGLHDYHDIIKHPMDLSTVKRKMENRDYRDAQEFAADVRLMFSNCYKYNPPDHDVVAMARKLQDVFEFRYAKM
T6 sequence (P25440 344-453 W370H limits assumed): as the sequence (P25440 344-453 W370F limits assumed) above, with F27H counted along it
T1 sequence (P25440 344-453 limits assumed): as the sequence (P25440 344-453 W370F limits assumed) above, with F27W counted along it
T5 sequence (P25440 74-180 W97F limits assumed): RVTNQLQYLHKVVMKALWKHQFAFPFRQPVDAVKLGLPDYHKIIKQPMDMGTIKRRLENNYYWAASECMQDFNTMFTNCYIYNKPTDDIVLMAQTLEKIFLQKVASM
T2 sequence (P25440 74-180 W97H limits assumed): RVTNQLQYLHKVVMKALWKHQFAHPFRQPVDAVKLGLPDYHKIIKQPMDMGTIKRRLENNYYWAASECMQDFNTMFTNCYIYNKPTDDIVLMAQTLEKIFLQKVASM
T4 sequence (P25440 74-180 limits assumed): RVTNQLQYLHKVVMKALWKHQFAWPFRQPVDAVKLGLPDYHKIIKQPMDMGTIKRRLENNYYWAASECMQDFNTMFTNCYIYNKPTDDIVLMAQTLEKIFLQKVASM

Structure (SMILES)	ΔTm Brd2(2) (Brd2(2)) [K]	ΔTm Brd2(1)*(Tryp097-His) (Brd2(1)*(Trp097His)) [K]	ΔTm Brd2(2)*(Tryp370-Phe) (Brd2(2)*(Trp370Phe)) [K]	ΔTm Brd2(1) (Brd2(1)) [K]	ΔTm Brd2(1)*(Tryp097-Phe) (Brd2(1)*(Trp097Phe)) [K]	ΔTm Brd2(2)*(Tryp370-His) (Brd2(2)*(Trp370His)) [K]	Thermal stabilisation brd2(2) (Brd2(2)) [°C]	Thermal stabilisation brd2(1)W097H (Brd2(1)*(Trp097His)) [°C]	Thermal stabilisation brd2(2)W370F (Brd2(2)*(Trp370Phe)) [°C]	Thermal stabilisation brd2(1) (Brd2(1)) [°C]	Thermal stabilisation brd2(1)W097F (Brd2(1)*(Trp097Phe)) [°C]	Thermal stabilisation brd2(2)W370H (Brd2(2)*(Trp370His)) [°C]
COC(=O)CC1N=C(c2cc(Cl)ccc2Cl)c2cc(OC)ccc2-n2c(C)nnc21 (centres unmarked) [Compound 17]	2.5 ± 0.2	−0.4 ± 0.2	0.3 ± 0.0	1.2 ± 0.2	0.0 ± 0.2	−0.4 ± 0.2	–	–	–	–	–	–
COC(=O)CC1N=C(c2ccc(Cl)c(C)c2)c2cc(OC)ccc2-n2c(C)nnc21 (racemic) [Compound 9, (+−)-methyl 2-(6-(4-chloro-3-methylphenyl)-8-methoxy-1-methyl-4H-benzo[f][1,2,4]triazolo[4,3-a][1,4]diazepin-4-yl)acetate]	3.2 ± 0.1	0.2 ± 0.2	1.5 ± 0.0	1.5 ± 0.2	−0.1 ± 0.2	1.0 ± 0.3	3.2 ± 0.1	0.2 ± 0.2	1.5 ± 0.0	1.5 ± 0.2	−0.1 ± 0.2	1.0 ± 0.3
CN1Cc2cc(NS(=O)(=O)c3ccccc3-c3ccccc3)ccc2NC1=O [Compound 44, N-(3-methyl-2-oxo-1,2,3,4-tetrahydroquinazolin-6-yl)-[1,1′-biphenyl]-2-sulfonamide]	2.1 ± 0.4	1.3 ± 0.2	2.2 ± 0.3	2.8 ± 0.4	1.8 ± 0.3	0.5 ± 0.3	–	–	–	–	–	–
COC(=O)CC1N=C(c2cc(C)ccc2C)c2cc(OC)ccc2-n2c(C)nnc21 (racemic) [Compound 10, (+−)-methyl 2-(6-(2,5-dimethylphenyl)-8-methoxy-1-methyl-4H-benzo[f][1,2,4]triazolo[4,3-a][1,4]diazepin-4-yl)acetate]	3.5 ± 0.1	−0.4 ± 0.3	0.6 ± 0.1	1.8 ± 0.2	0.1 ± 0.2	−0.1 ± 0.1	3.5 ± 0.1	−0.4 ± 0.3	0.6 ± 0.1	1.8 ± 0.2	0.1 ± 0.2	−0.1 ± 0.1
Cc1cc(C)c(S(=O)(=O)Nc2ccc3c(c2)CN(C)C(=O)N3)c(C)c1 [Compound 42, 2,4,6-trimethyl-N-(3-methyl-2-oxo-1,2,3,4-tetrahydroquinazolin-6 yl)benzenesulfonamide]	2.7 ± 0.5	0.2 ± 0.4	1.8 ± 0.2	0.7 ± 0.3	0.7 ± 0.2	0.2 ± 0.2	–	–	–	–	–	–
Cc1cccc(Cl)c1S(=O)(=O)Nc1ccc2c(c1)CN(C)C(=O)N2 [Compound 45, 2-chloro-6-methyl-N-(3-methyl-2-oxo-1,2,3,4-tetrahydroquinazolin-6-yl)benzenesulfonamide]	5.3 ± 0.5	0.0 ± 0.3	2.3 ± 0.1	3.9 ± 0.2	–	0.8 ± 0.1	–	–	–	–	–	–
CN1Cc2cc(NS(=O)(=O)c3c(Cl)cccc3Cl)ccc2NC1=O [Compound 43, 2,6-dichloro-N-(3-methyl-2-oxo-1,2,3,4-tetrahydroquinazolin-6-yl)benzenesulfonamide]	0.6 ± 0.1	0.2 ± 0.2	1.8 ± 0.3	1.2 ± 0.2	0.2 ± 0.3	0.3 ± 0.1	–	–	–	–	–	–
